# Measured values: PubChem BioAssay AID1919009 (Molecular Pharmacology Branch, DTP, NCI, 2023)
# System: K24384-001-R-PDC complex spheroid growth
# Test: Anticancer human tumor K24384-001-R-PDC patient-derived pancreatic adenocarcinoma cell line growth inhibition [AhR]
# Details: for IC50: curve of first compound; for viability, T/C: stronger effect = lower value
# Source text: Multicellular complex tumor spheroid response to aryl hydrocarbon receptor antagonists in combination with a variety of drugs and investigational agents in selected tumor cell lines
# The current study was undertaken to assess response to aryl hydrocarbon receptor antagonists in combination with standard-of-care drugs and investigational agents in solid tumor complex spheroid models. Complex spheroids include a stromal component modeled by human endothelial cells (HUVEC) and fibroblasts modeled by human mesenchymal stem cells (MSCs). The concentration ranges selected for each drug and investigational agent were based upon clinically achievable concentrations if the clinical Cmax of the agent was known.
# Compounds. The drugs and investigational agents: BAY 2416964 (NSC825713), GNF351 (NSC835774), CH-223191 (NSC835775), CPI-455 (NSC825282), aza-TdCyd (NSC777586), decitabine (NSC127716), belinostat (NSC758774), entinostat (NSC756642), pevonedistat (NSC761192), tazemetostat (NSC777109), talazoparib (NSC765396), olaparib (NSC753686), selinexor (NSC780203), nedisertib (M3814, NSC802822), bortezomib (NSC756655), venetoclax (NSC766270), doxorubicin (NSC123127), elimusertib (BAY189344, NSC800525), ceralasertib (AZD6738, NSC777638), TAK-243 (NSC785004), alisertib (NSC759677), etoposide (NSC141540), topotecan (NSC609699), eribulin (NSC707389), gemcitabine (NSC613327), carboplatin (NSC241240), cisplatin (NSC119875), and SN-38 (NSC673596) were obtained from the National Cancer Institute (NCI) Developmental Therapeutics Program Chemical Repository (32). The FDA-approved anticancer drug set is available from the Developmental Therapeutics Program at https://dtp.cancer.gov/organization/dscb/obtaining/available plates.htm. […] The stock solutions were prepared in dimethyl sulfoxide (DMSO, Sigma-Aldrich, St. Louis, MO, cat. D2650), except for the platinum compounds which were prepared in saline (Quality Biological, Gaithersburg, MD, cat. 114-055-101), at 800-fold the tested concentration and stored at -70 degrees C prior to their use. All drugs and investigational agents were tested over a range starting from a high concentration at or near the clinical Cmax and decreasing in half-log increments. If the clinical Cmax for an agent had not been determined, the highest concentration tested was 10 microM (Table 1).
# Cell Culture. All cells were maintained in an incubator at 37 degrees C and 5% CO2 with 95% humidity. The PDC lines were cultured according to standard operating procedures established by the NCI PDMR (https://pdmr.cancer.gov). Briefly, all PDCs were thawed and cultured in Matrigel-coated flasks prepared with a working solution of 1X Ham's F-12 nutrient mix, without supplementation (Invitrogen, Waltham, MA, cat. 11765054), 100 U/mL penicillin-streptomycin (Invitrogen, cat. 15140122), and 2.5% Matrigel (Corning Inc., Corning, NY, cat. 354248) for the first three passages. All PDCs were cultured in complete DMEM/F-12 media containing advanced DMEM/F-12 (Invitrogen, cat. 12634028), 4.9% defined fetal bovine serum, heat inactivated (HyClone Laboratories Inc., Logan, UT, cat. SH30070.03HI), 389 ng/mL hydrocortisone (Sigma-Aldrich, cat. H4001), 9.7 ng/mL human EGF recombinant protein (Invitrogen, cat. PHG0313), 23.4 microg/mL adenine (Sigma-Aldrich, cat. A2786), 97.3 U/mL penicillin-streptomycin (Invitrogen, cat. 15140122), 1.9 mM L-glutamine (Invitrogen, cat. 25030081), and 9.7 microM Y-27632 dihydrochloride (Tocris Bioscience, Bristol, United Kingdom, cat. 1254). The PDCs were cultured in complete DMEM/F12 media without 10 microM Y-27632 dihydrochloride for at least two passages prior to the screen. The established cell lines NCI-H1341 and […] were cultured in DMEM/F-12, HEPES (Invitrogen, cat. 11330032), 5% defined fetal bovine serum (HyClone Laboratories Inc., cat. SH30070.03), ITS premix universal culture supplement [insulin (5 microg/mL), transferrin (5 microg/mL), and selenious acid (5 ng/mL)] […]
# [1] = second compound 0.1 µM, first compound 0.0316 µM
# [2] = second compound 0.1 µM, first compound 0.1 µM
# [3] = second compound 0.1 µM, first compound 0.316 µM
# [4] = second compound 0.1 µM, first compound 1 µM
# [5] = second compound 0.1 µM, first compound 3.16 µM
# [6] = second compound 0.1 µM, first compound 10 µM
# [7] = second compound 0.316 µM, first compound 0.0316 µM
# [8] = second compound 0.316 µM, first compound 0.1 µM
# [9] = second compound 0.316 µM, first compound 0.316 µM
# [10] = second compound 0.316 µM, first compound 1 µM
# [11] = second compound 0.316 µM, first compound 3.16 µM
# [12] = second compound 0.316 µM, first compound 10 µM
# [13] = second compound 1 µM, first compound 0.0316 µM
# [14] = second compound 1 µM, first compound 0.1 µM
# [15] = second compound 1 µM, first compound 0.316 µM
# [16] = second compound 1 µM, first compound 1 µM
# [17] = second compound 1 µM, first compound 3.16 µM
# [18] = second compound 1 µM, first compound 10 µM
# [19] = second compound 3.16 µM, first compound 0.0316 µM
# [20] = second compound 3.16 µM, first compound 0.1 µM
# [21] = second compound 3.16 µM, first compound 0.316 µM
# [22] = second compound 3.16 µM, first compound 1 µM
# [23] = second compound 3.16 µM, first compound 3.16 µM
# [24] = second compound 3.16 µM, first compound 10 µM
# [25] = second compound 10 µM, first compound 0.0316 µM
# [26] = second compound 10 µM, first compound 0.1 µM
# [27] = second compound 10 µM, first compound 0.316 µM
# [28] = second compound 10 µM, first compound 1 µM
# [29] = second compound 10 µM, first compound 3.16 µM
# [30] = second compound 10 µM, first compound 10 µM
# 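Throughout, for viability, T/C: percent of DMSO vehicle-treated spheroid viability set as 100%.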
smiles,measurement,setting,value
CC(C)CC(NC(=O)C(Cc1ccccc1)NC(=O)c1cnccn1)B(O)O (stereo not given) + CC(CO)NC(=O)c1cc(-c2ccc(Cl)cc2)nn(-c2cnn(C)c2)c1=O,IC50,second compound 0.1 µM,0.00657 µM
same,IC50,second compound 0.316 µM,0.00716 µM
same,IC50,second compound 1 µM,0.00654 µM
same,IC50,second compound 3.16 µM,0.00558 µM
same,IC50,second compound 10 µM,0.00603 µM
same,"viability, T/C","second compound 0.1 µM, first compound 0.000949 µM",118%
same,"viability, T/C","second compound 0.1 µM, first compound 0.003 µM",110%
same,"viability, T/C","second compound 0.1 µM, first compound 0.00949 µM",22%
same,"viability, T/C","second compound 0.1 µM, first compound 0.03 µM",0.35%
same,"viability, T/C","second compound 0.1 µM, first compound 0.0949 µM",0.73%
same,"viability, T/C","second compound 0.1 µM, first compound 0.3 µM",0.34%
same,"viability, T/C","second compound 0.316 µM, first compound 0.000949 µM",133%
same,"viability, T/C","second compound 0.316 µM, first compound 0.003 µM",125%
same,"viability, T/C","second compound 0.316 µM, first compound 0.00949 µM",25.6%
same,"viability, T/C","second compound 0.316 µM, first compound 0.03 µM",0.68%
same,"viability, T/C","second compound 0.316 µM, first compound 0.0949 µM",0.25%
same,"viability, T/C","second compound 0.316 µM, first compound 0.3 µM",0.3%
same,"viability, T/C","second compound 1 µM, first compound 0.000949 µM",108%
same,"viability, T/C","second compound 1 µM, first compound 0.003 µM",108%
same,"viability, T/C","second compound 1 µM, first compound 0.00949 µM",22.2%
same,"viability, T/C","second compound 1 µM, first compound 0.03 µM",0.35%
same,"viability, T/C","second compound 1 µM, first compound 0.0949 µM",0.3%
same,"viability, T/C","second compound 1 µM, first compound 0.3 µM",0.35%
same,"viability, T/C","second compound 3.16 µM, first compound 0.000949 µM",83.6%
same,"viability, T/C","second compound 3.16 µM, first compound 0.003 µM",99.2%
same,"viability, T/C","second compound 3.16 µM, first compound 0.00949 µM",14.6%
same,"viability, T/C","second compound 3.16 µM, first compound 0.03 µM",0.34%
same,"viability, T/C","second compound 3.16 µM, first compound 0.0949 µM",0.32%
same,"viability, T/C","second compound 3.16 µM, first compound 0.3 µM",0.31%
same,"viability, T/C","second compound 10 µM, first compound 0.000949 µM",107%
same,"viability, T/C","second compound 10 µM, first compound 0.003 µM",110%
same,"viability, T/C","second compound 10 µM, first compound 0.00949 µM",12%
same,"viability, T/C","second compound 10 µM, first compound 0.03 µM",0.84%
same,"viability, T/C","second compound 10 µM, first compound 0.0949 µM",0.35%
same,"viability, T/C","second compound 10 µM, first compound 0.3 µM",0.9%
Nc1ccccc1NC(=O)c1ccc(CNC(=O)OCc2cccnc2)cc1 + CC(CO)NC(=O)c1cc(-c2ccc(Cl)cc2)nn(-c2cnn(C)c2)c1=O,IC50,second compound 0.1 µM,1.96 µM
same,IC50,second compound 0.316 µM,1.35 µM
same,IC50,second compound 1 µM,1.18 µM
same,IC50,second compound 3.16 µM,0.987 µM
same,IC50,second compound 10 µM,0.572 µM
same,"viability, T/C",[1],100%
same,"viability, T/C",[2],101%
same,"viability, T/C",[3],88.2%
same,"viability, T/C",[4],60.9%
same,"viability, T/C",[5],41.8%
same,"viability, T/C",[6],6.28%
same,"viability, T/C",[7],87.6%
same,"viability, T/C",[8],97.7%
same,"viability, T/C",[9],80.6%
same,"viability, T/C",[10],53.2%
same,"viability, T/C",[11],31.8%
same,"viability, T/C",[12],4.37%
same,"viability, T/C",[13],88.2%
same,"viability, T/C",[14],94.8%
same,"viability, T/C",[15],92.1%
same,"viability, T/C",[16],47.4%
same,"viability, T/C",[17],28.8%
same,"viability, T/C",[18],4.21%
same,"viability, T/C",[19],83.7%
same,"viability, T/C",[20],92.4%
same,"viability, T/C",[21],79%
same,"viability, T/C",[22],44.6%
same,"viability, T/C",[23],24.2%
same,"viability, T/C",[24],1.77%
same,"viability, T/C",[25],70.9%
same,"viability, T/C",[26],72.8%
same,"viability, T/C",[27],55.9%
same,"viability, T/C",[28],40.5%
same,"viability, T/C",[29],25.1%
same,"viability, T/C",[30],0.88%
O=C(C=Cc1cccc(S(=O)(=O)Nc2ccccc2)c1)NO + CC(CO)NC(=O)c1cc(-c2ccc(Cl)cc2)nn(-c2cnn(C)c2)c1=O,IC50,second compound 0.1 µM,1.58 µM
same,IC50,second compound 0.316 µM,2.21 µM
same,IC50,second compound 1 µM,2 µM
same,IC50,second compound 3.16 µM,1.6 µM
same,IC50,second compound 10 µM,1.8 µM
same,"viability, T/C",[1],97.1%
same,"viability, T/C",[2],126%
same,"viability, T/C",[3],126%
same,"viability, T/C",[4],65.4%
same,"viability, T/C",[5],28.5%
same,"viability, T/C",[6],2.04%
same,"viability, T/C",[7],119%
same,"viability, T/C",[8],130%
same,"viability, T/C",[9],122%
same,"viability, T/C",[10],96.1%
same,"viability, T/C",[11],29.3%
same,"viability, T/C",[12],1.86%
same,"viability, T/C",[13],123%
same,"viability, T/C",[14],127%
same,"viability, T/C",[15],137%
same,"viability, T/C",[16],81%
same,"viability, T/C",[17],30.5%
same,"viability, T/C",[18],1.91%
same,"viability, T/C",[19],107%
same,"viability, T/C",[20],103%
same,"viability, T/C",[21],136%
same,"viability, T/C",[22],73.3%
same,"viability, T/C",[23],20.5%
same,"viability, T/C",[24],1%
same,"viability, T/C",[25],107%
same,"viability, T/C",[26],117%
same,"viability, T/C",[27],98.9%
same,"viability, T/C",[28],73%
same,"viability, T/C",[29],28.4%
same,"viability, T/C",[30],0.81%
